Patent US6498251B1, “Tetrahydrobenzindole derivatives” (Meiji Seika Kaisha, Ltd., priority 1997, dated 2002)

Tests used:
[1] = molecular target: T1, human serotonin 5-HT7 receptor subtype (Homo sapiens, UniProt P34969); experiment: Binding affinity for 5-HT7 receptor ([3H]-5CT binding test); settings: for Ki: [3H]-5CT 1 nM, membrane fraction of cells expressing human 5-HT7, 37° C. 30 minutes, Ki calculated from IC50; for 5-HT2/5-HT7: ratio of Ki of 5-HT2 to Ki of 5-HT7 (selectivity)
T1 construct: expressed in transfected cells
T1 sequence (P34969 whole entry): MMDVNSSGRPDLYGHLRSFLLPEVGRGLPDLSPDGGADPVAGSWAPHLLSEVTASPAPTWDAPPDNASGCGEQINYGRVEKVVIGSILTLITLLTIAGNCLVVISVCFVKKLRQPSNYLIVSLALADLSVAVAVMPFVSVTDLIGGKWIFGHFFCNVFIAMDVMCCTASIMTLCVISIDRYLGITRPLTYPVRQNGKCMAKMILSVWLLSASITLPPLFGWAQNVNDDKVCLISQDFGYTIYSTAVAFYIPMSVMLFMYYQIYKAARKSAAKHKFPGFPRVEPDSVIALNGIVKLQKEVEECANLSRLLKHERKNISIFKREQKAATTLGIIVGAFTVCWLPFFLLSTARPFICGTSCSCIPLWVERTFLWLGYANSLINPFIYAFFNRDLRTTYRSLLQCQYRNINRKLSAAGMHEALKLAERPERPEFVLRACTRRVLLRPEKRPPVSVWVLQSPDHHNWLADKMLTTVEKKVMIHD
Method: Test Example 1 Binding Affinity for 5-HT7 Rector
Cultured cells capable of expressing human serotonin 5-HT7 receptor subtype were harvested in an assay buffer solution (50 mM Tris-HCl containing 10 mM MgCl2and 0.5 mM EDTA, pH 7.4) and homogenized with a Potter tripe homogenizer, and then the membrane fraction was centrifuged for 20 minutes at 39,000 g and at 4° C. The thus obtained pellet was re-suspended in 1 ml, per cells per one culture dish of 10 cm in diameter, of the assay buffer solution and homogenized again.
The binding test was carried out using 1 nM in final concentration of [^3H]-5CT (carboxamide tryptamine) and from 1 to 1,000 nM of each substance to be tested (the compound (1) of the invention among Synthesis Examples), and adjusting the final assay volume to 300 μl by adding 100 μl of the membrane fraction suspension and then incubating the reaction system at 37° C. for 30 minutes. The incubation was terminated by quickly filtering on a GF/B filter, subsequently carrying out washing with 6 ml of cold 50 mM Tris-HCl (pH 7.4). The radioactivity was measured using a liquid scintillation counter. Non-specific binding was determined by 10 μM metergoline, and the specific binding was calculated based on the difference therefrom. The IC50 value was calculated from the inhibition curve of each compound, and the binding inhibition constant Ki was calculated from the value.

[2] = molecular target: T2, 5-HT2 receptor (Rattus norvegicus, UniProt P14842); experiment: Binding affinity for 5-HT2 receptor ([3H]ketanserin binding, rat cerebral cortex P2 fraction); settings: [3H]ketanserin 1 nM, 37° C. 15 minutes, Ki calculated from IC50
T2 construct: Rat cerebral cortex was homogenized; from tissue; host or cells: rat cerebral cortex, P2 membrane fraction
T2 sequence (P14842 whole entry): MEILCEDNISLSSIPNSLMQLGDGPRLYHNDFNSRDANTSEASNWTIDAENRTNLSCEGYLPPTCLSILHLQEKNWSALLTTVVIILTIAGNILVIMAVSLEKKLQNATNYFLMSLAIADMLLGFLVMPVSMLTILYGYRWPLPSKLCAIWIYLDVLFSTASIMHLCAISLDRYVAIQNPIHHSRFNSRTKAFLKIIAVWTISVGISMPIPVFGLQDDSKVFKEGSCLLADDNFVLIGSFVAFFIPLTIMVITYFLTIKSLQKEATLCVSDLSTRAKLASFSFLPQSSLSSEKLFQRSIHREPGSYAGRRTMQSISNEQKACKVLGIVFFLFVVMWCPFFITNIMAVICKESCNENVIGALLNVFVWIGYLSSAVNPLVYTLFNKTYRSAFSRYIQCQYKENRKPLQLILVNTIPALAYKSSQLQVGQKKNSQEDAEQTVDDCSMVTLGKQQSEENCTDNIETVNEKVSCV
Method: Test Example 2 Binding Affinity for 5-HT2 Rector
Rat cerebral cortex was homogenized in 10 volumes of 0.32 M sucrose solution and centrifuged for 10 minutes at 900×g, and the resulting supernatant fluid was again centrifuged for 20 minutes at 11,500×g. The thus obtained precipitate was re-suspended in 50 mM Tris-HCl (pH 7.4) buffer and centrifuged for 20 minutes at 39,900×g, and the thus obtained precipitate was used as P2 fraction.
The P2 fraction was incubated at 37° C. for 15 minutes in 50 mM Tris-HCl (pH 7.4) buffer containing 1 nM of [^3H]ketanserin and each of the compounds of the invention and then filtered after the reaction using Whatman GF/B glass filter. The radioactivity on the filter was measured using a liquid scintillation counter. Non-specific binding was determined by 10 μM ketanserin, and the specific binding was calculated based on the difference therefrom. The IC50 value was calculated from the inhibition curve of each compound, and the binding inhibition constant Ki was calculated from the value.

For `O=C1Nc2cccc3c2C1(CCCCN1CCc2c([nH]c4ccccc24)C1)CCC3` (stereo not drawn) [Compd. of Syn. Ex. 1a, 2a-[4-(2,3,4,9-Tetrahydro-1H-pyrido[3,4-b]indol-2-yl)-butyl]-2a,3,4,5-tetrahydro-1H-benz[cd]indol-2-one], the Ki [1] was 7 nM, the 5-HT2/5-HT7 [1] was 33 and the Ki [2] was 227 nM.

`O=C1Nc2cccc3c2C1(CCCCN1CCN2c4ccccc4OCC2C1)CCC3` (stereo not drawn) [Compd. of Syn. Ex. 1b, 2a-[4-(1,2,3,4,4a,5-Hexahydropyrazino[2,1-c]-1,4-benzoxazin-3-yl)-butyl]-2a,3,4,5-tetrahydro-1H-benz[cd]indol-2-one] was tested, and the Ki [1] was 9 nM, the 5-HT2/5-HT7 [1] was 17 and the Ki [2] was 151 nM.

`CC(c1ccccc1)N1CCN(CCCCC23CCCc4cccc(c42)NC3=O)CC1` (stereo not drawn) [Compd. of Syn. Ex. 2e, 2a-(4-(4-(1-Phenyl-ethyl)-piperazin-1-yl)butyl)-2a,3,4,5-tetrahydro-1H-benz[cd]indol-2-one] was tested, and the Ki [1] was 30 nM, the 5-HT2/5-HT7 [1] was 15 and the Ki [2] was 456 nM.

In the case of `O=C1Nc2cccc3c2C1(CCCCN1CCN2c4ccccc4[S+]([O-])CC2C1)CCC3` (stereo not drawn) [Compd. of Syn. Ex. 10b, 2a-[4-(1,2,3,4,4a,5-Hexahydro-6-oxo-6-λ^4-pyrazino[2,1-c]-1,4-benzthiazin-3-yl)-butyl]-2a,3,4,5-tetrahydro-1H-benz[cd]indol-2-one], the Ki [1] is reported as 7 nM, the 5-HT2/5-HT7 [1] is reported as greater than 143 and the Ki [2] is reported as greater than 1000 nM.

Work on `O=C1Nc2cccc3c2C1(CCCCN1CCN(C2CCCc4ccccc42)CC1)CCC3` (stereo not drawn) [Compd. of Syn. Ex. 10d, 2a-(4-(4-(1,2,3,4-Tetrahydronaphthalen-1-yl)-piperazin-1-yl)butyl)-2a,3,4,5-tetrahydro-1H-benz[cd]indol-2-one] yielded a Ki [1] of 9.8 nM, a 5-HT2/5-HT7 [1] greater than 100 and a Ki [2] greater than 1000 nM.

In the case of `Cl.O=C1Nc2ccccc2N2CCN(CCCCC34CCCc5cccc(c53)NC4=O)CC12` (stereo not drawn) [Compd. of Syn. Ex. 13b, 2a-[4-(2,3,4,4a-Tetrahydro-1H-pyrazino[1,2-a]quinoxalin-5(6H)-one-3-yl)-butyl]-2a,3,4,5-tetrahydro-1H-benz[cd]indol-2-one Hydrochloride], the Ki [1] is reported as 8 nM, the 5-HT2/5-HT7 [1] is reported as 48 and the Ki [2] is reported as 385 nM.

In the case of `CN1C(=O)C2(CCCCN3CCc4ccccc4C3)CCCc3cccc1c32` (stereo not drawn) [Compd. of Syn. Ex. 14c, 2a-(4-(1,2,3,4-Tetrahydroisoquinolin-2-yl)butyl)-1-methyl-2a,3,4,5-tetrahydro-1H-benz[cd]indol-2-one], the Ki [1] is reported as 1.9 nM, the 5-HT2/5-HT7 [1] is reported as greater than 530 and the Ki [2] is reported as greater than 1000 nM.

Work on `COC(=O)n1c2c(c3ccccc31)CCN(CCCCC13CCCc4cccc(c41)NC3=O)C2` (stereo not drawn) [Compd. of Syn. Ex. 17a, 2a-[4-(9-Methoxycarbonyl-2,3,4,9-tetrahydro-1H-pyrido[3,4-b]indol-2-yl)-butyl]-2a,3,4,5-tetrahydro-1H-benz[cd]indol-2-one] yielded a Ki [1] of 9 nM, a 5-HT2/5-HT7 [1] of 90 and a Ki [2] of 807 nM.

`O=C1Nc2cccc3c2C1(CCCCN1CCc2sccc2C1)CCC3` (stereo not drawn) [Compd. of Syn. Ex. 17c, 2a-(4-(4,5,6,7-Tetrahydro-thieno[3,2-c]pyridin-5-yl)butyl)-2a,3,4,5-tetrahydro-1H-benz[cd]indol-2-one] showed a Ki [1] of 0.9 nM, a 5-HT2/5-HT7 [1] greater than 1100 and a Ki [2] greater than 1000 nM.

For `COCn1c2c(c3ccccc31)CCN(CCCCC13CCCc4cccc(c41)NC3=O)C2` (stereo not drawn) [Compd. of Syn. Ex. 21a, 2a-[4-(9-Methoxymethyl-2,3,4,9-tetrahydro-1H-pyrido[3,4-b]indol-2-yl)-butyl]-2a,3,4,5-tetrahydro-1H-benz[cd]indol-2-one], the Ki [1] was 13 nM, the 5-HT2/5-HT7 [1] was 40 and the Ki [2] was 524 nM.

Work on `O=C1Nc2cccc3c2C1(CCCCN1CCN(C2CCCc4cnccc42)CC1)CCC3` (stereo not drawn) [Compd. of Syn. Ex. 37d, 2a-(4-(4-(5,6,7,8-Tetrahydroisoquinolin-5-yl)-piperazin-1-yl)butyl)-2a,3,4,5-tetrahydro-1H-benz[d]indol-2-one] yielded a Ki [1] of 8.8 nM, a 5-HT2/5-HT7 [1] of 100 and a Ki [2] of 882 nM.
